The results in this text go back to US20240376094A2, “SELECTIVE BCL-XL PROTAC COMPOUNDS AND METHODS OF USE” (Les Laboratoires Servier, priority 2021, published 2024).

What all share (type): cell-based
In one assay the target is T1, endogenous BCL-xL (Homo sapiens, UniProt Q07817).
T1 construct: endogenous in cells; host or cells: COR-L105 (ECACC No. 92031918); NCI-H1650 (ATCC No. CRL-5883)
Description: Degradation of endogenous BCL-xL in COR-L105 (ProteinSimple Jess). Conditions: COR-L105, 24 h, COR-L105, dose 300 nM, read-out: % BCL-xL vs. Untreated, COR-L105. Put shortly:
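COR-L105 cells (2,000,000/well) treated 24 h at 37 °C with compound at 100–300 nM final, singlet, alongside untreated cells. RIPA lysates normalized by BCA to 1.5 mg/mL, then BCL-xL detected by capillary immunoassay (2–40 kDa Jess) comparing treated with untreated lysates.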

The subject of another assay is NCI-H1650. Description: CellTiter-Glo 3D proliferation assay, NCI-H1650 spheroids. Conditions: Homo sapiens, NCI-H1650, 120 h, 5 days. The method in brief: (§1)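 Both lines grown in RPMI-1640 + 10% FBS. COR-L105 plated flat at 1,000 cells/well overnight; NCI-H1650 grown as spheroids, 3,000 cells/well, 72 h. Compounds at 0.508 nM-10 μM final for 5 days, 37° C. ATP read by CellTiter-Glo (3D version for spheroids); IC50 from variable-slope fit normalized to untreated cells.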

The next assay relates to COR-L105. Description: CellTiter-Glo proliferation assay, COR-L105. The note with it: Homo sapiens, COR-L105, 120 h, COR-L105, 5 days. Put shortly: as §1

The structures appear in SMILES notation.

T1 sequence (Q07817 whole entry): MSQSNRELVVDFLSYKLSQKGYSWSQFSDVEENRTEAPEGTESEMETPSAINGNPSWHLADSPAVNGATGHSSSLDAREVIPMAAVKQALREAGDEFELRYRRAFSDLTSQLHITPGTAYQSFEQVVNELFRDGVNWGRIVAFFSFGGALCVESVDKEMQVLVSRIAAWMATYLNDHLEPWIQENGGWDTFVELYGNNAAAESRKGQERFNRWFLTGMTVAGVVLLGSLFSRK

As for `Cc1ncsc1-c1ccc(CNC(=O)[C@@H]2C[C@@H](O)CN2C(=O)[C@@H](NC(=O)C2(F)CC2)C(C)(C)C)c(OCC(=O)N2CCN(CCOC34CC5(C)CC(C)(CC(Cn6ncc(-c7ccc(N8CCCc9c8nnc(Nc8nc%10ccccc%10s8)c9C)nc7C(=O)O)c6C)(C5)C3)C4)CC2)c1` [Example 50, 6-(3-(benzo[d]thiazol-2-ylamino)-4-methyl-6,7-dihydropyrido [2,3-c]pyridazin-8(5H)-yl)-3-(1-(((1r,3s,5R,7S)-3-(2-(4-(2-(2-(((2S,4R)-1-((S)-2-(1-fluorocyclopropane-1-carboxamido)-3,3-dimethylbutanoyl)-4-hydroxypyrrolidine-2-carboxamido)methyl)-5-(4-methylthiazol-5-yl)phenoxy)acetyl)piperazin-1-yl)ethoxy)-5,7-dimethyladamantan-1-yl)methyl)-5-methyl-1H-pyrazol-4-yl)picolinic acid], the remaining activity at 0.3 µM at endogenous BCL-xL was found to be 88%. In addition, the half-maximal inhibitory concentration (IC50) with NCI-H1650 amounted to 25.9 nM; in the assay on COR-L105, 287 nM. Moreover, the values for the Emax with NCI-H1650 (read-out: NCI-H1650 Span (Amax)) and with COR-L105 (read-out: COR-L105 Span (max)) were 93.8% and 90.2%, respectively.
